By solubility is commonly meant how much of the substance goes into solution per volume. A high value points to a readily soluble substance. A word on the Kd: it is the equilibrium constant for the complex coming apart. By koff is commonly meant the first-order rate constant of dissociation. Low values mean slow dissociation, high ones fast dissociation. As a reminder, the kon is the second-order rate constant of association. Lower therefore signals slower complex formation.

Values joined by “and” are separate entries in the source; they are usually repeats but may differ in a detail not shown here. Equal values may be shown once. Read-outs that look alike come from different tables or passages of the source. Side chains are listed from the residue outwards. Ends that are not written are not given here. Peptide text beside a SMILES is read from it. * marks the point of attachment. Biotin = O=C1N[C@H]2[C@H](CS[C@H]2CCCCC(=O)*)N1

The target of data set [1] is T1, OmpF (Escherichia coli, UniProt P02931).
T1 sequence (P02931 23-362): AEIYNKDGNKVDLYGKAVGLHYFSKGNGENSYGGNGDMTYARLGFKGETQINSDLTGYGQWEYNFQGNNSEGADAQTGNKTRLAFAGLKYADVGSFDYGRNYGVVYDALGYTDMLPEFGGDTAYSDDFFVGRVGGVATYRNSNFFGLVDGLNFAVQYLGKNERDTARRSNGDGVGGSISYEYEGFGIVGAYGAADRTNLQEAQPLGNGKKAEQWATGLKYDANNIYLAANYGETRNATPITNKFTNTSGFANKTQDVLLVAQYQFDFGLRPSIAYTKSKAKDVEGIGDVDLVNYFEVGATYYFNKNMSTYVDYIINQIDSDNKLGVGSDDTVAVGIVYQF
Type of data set: binding. Set-up: made in house; host or cells: E. coli BZB1107 (ompF-, ompC-), plasmid pNGH72. The note with it: for k1 / k2 / k3 / k–1 / k–2 / k–3: extrapolated to 0 mV; for k1: DPhPC bilayer, 20 mM potassium phosphate pH 6.4, 0.1 M KCl, 20.5 °C, at least three independent experiments; for k2 / k3 / k–1 / k–2 / k–3: pH 6.4, 0.1 M KCl.

Data set [2] can be described thus: Solubility of IUTD constructs. Type of data set: physicochemical.
Data set [3] has as its target T1, OmpF.
Data set [4] addresses OmpF (Escherichia coli) (UniProt P02931). The data set is described as follows: ITC. Particulars: cited from earlier work.
The target of data set [5] is OmpF porin trimer (outer-membrane protein F) (Escherichia coli) (UniProt P02931). The data set is described as follows: single-channel electrical recording in planar lipid bilayer.
Data set [6] has the same target. The data set is described as above. The source holds these as a separate data set.
Data set [7] shares this target. The data set is described as follows: single-channel electrical recording in planar lipid bilayer; single OmpF trimer in a DPhPC bilayer; binder added to the extracellular side; -100 mV (as stated for Figures 2, 3 and 5); 20 mM potassium phosphate pH 6.4, 0.1 M KCl, 20.5 °C.
The target of data set [8] is AEDANS-labelled OBS1-fusion protein (colicin E9 OmpF-binding site 1 fused to a carrier) (UniProt P09883). Briefly: stopped-flow FRET (OmpF tryptophans to AEDANS). The note with it: pH 6.5, 4 °C, no added salt stated (20 mM potassium phosphate only).
For data set [9], the target named is T2, OmpF porin trimer (outer-membrane protein F) (Escherichia coli, UniProt P02931 23-362).
T2 sequence (looked up): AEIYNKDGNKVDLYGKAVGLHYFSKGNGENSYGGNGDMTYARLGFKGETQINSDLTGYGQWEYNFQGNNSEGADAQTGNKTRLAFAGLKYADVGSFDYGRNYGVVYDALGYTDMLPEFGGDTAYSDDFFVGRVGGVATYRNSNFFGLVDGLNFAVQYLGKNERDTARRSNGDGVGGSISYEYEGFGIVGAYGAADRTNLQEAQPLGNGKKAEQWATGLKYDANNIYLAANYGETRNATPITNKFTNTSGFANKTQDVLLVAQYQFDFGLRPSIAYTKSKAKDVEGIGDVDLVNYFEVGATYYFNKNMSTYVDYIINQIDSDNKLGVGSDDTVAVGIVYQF
Briefly: single-channel electrical recording in planar lipid bilayer; single OmpF trimer in a DPhPC bilayer; free peptide added to the periplasmic (trans) side, positive potentials; constants of Table 1 extrapolated to 0 mV, Kd for a single OmpF subunit; 20 mM potassium phosphate pH 6.4, 0.1 M KCl, 20.5 °C. The note with it: both partners purified.

Data set [10] addresses T2, OmpF porin trimer (outer-membrane …). The data set is described as follows: single-channel electrical recording in planar lipid bilayer; single OmpF trimer in a DPhPC bilayer; free peptide added to the extracellular (cis) side, negative potentials; constants of Table 1 extrapolated to 0 mV, Kd for a single OmpF subunit; 20 mM potassium phosphate pH 6.4, 0.1 M KCl, 20.5 °C. The note with it: both partners purified.

Data set [11] has as its target T3, OmpF porin trimer (E. coli, UniProt P02931 23-362).
T3 sequence (looked up): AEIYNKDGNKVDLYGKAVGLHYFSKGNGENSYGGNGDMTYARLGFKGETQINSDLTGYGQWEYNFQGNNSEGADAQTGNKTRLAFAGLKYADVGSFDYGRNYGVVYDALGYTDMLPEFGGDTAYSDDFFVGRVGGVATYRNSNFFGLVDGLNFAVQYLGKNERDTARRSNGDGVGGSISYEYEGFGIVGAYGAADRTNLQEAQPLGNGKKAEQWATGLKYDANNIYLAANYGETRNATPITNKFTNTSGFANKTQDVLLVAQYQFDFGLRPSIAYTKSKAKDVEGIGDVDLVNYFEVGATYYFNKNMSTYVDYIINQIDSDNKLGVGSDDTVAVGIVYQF
Briefly: single-channel electrical recording in planar lipid bilayers; single OmpF trimer in a DPhPC bilayer; peptide added to the extracellular side; phosphate buffer pH 6.4, 100 mM KCl; rate constants at 0 mV by extrapolation from negative applied potentials; Kd for the OmpF monomer (k-1 divided by one-third of k1). Particulars: both partners purified.

Data set [12] deals with T3, OmpF porin trimer. Briefly: single-channel electrical recording in planar lipid bilayers; current-voltage plots (-100 to +100 mV) of individual OmpF pores before and after addition of the binder to the extracellular side. The note with it: both partners purified.
Data set [13] addresses T2, OmpF porin trimer (outer-membrane …). Briefly: single-channel electrical recording in planar lipid bilayer; single OmpF trimer in a DPhPC bilayer; binder added to the extracellular side; -100 mV (as stated for Figures 2, 3 and 5); 20 mM potassium phosphate pH 6.4, 0.1 M KCl, 20.5 °C. Particulars: both partners purified.
Data set [14] shares this target. Briefly: single-channel electrical recording in planar lipid bilayer; single OmpF trimer in a DPhPC bilayer; mSA-capped peptide added to the periplasmic side; +100 mV (where stated); 20 mM potassium phosphate pH 6.4, 0.1 M KCl, 20.5 °C. The note with it: both partners purified.
Data set [15] has the same target. Briefly: single-channel electrical recording in planar lipid bilayer; single OmpF trimer in a DPhPC bilayer; free peptide added to the extracellular (cis) side, negative potentials; constants of Table 1 extrapolated to 0 mV, Kd for a single OmpF subunit; 20 mM potassium phosphate pH 6.4, 0.1 M KCl, 20.5 °C. Particulars: both partners purified. The source holds these as a separate data set.

For data set [16] the target is unchanged. Briefly: single-channel electrical recording in planar lipid bilayer; single OmpF trimer in a DPhPC bilayer; free peptide added to the periplasmic (trans) side, positive potentials; constants of Table 1 extrapolated to 0 mV, Kd for a single OmpF subunit; 20 mM potassium phosphate pH 6.4, 0.1 M KCl, 20.5 °C. The note with it: both partners purified. The source holds these as a separate data set.

Data set [17] concerns the target T3, OmpF porin trimer. The data set is described as follows: single-channel electrical recording in planar lipid bilayers; OmpF trimer with two subunits already occluded by untagged IUTD (added to the extracellular side at -100 mV, rest removed by buffer exchange); 1 µM peptide then added to the periplasmic side at +50 mV. The note with it: both partners purified.
Setting [18] is: peptide from the periplasmic side, ± s.d., at least three experiments.
Where [19] appears, read: peptide from the extracellular side, ± s.d., at least three experiments.

Sequence of AEDANS-labelled OBS1-fusion protein (colicin E9 OmpF-binding site 1 fused to a carrier) (P09883 whole entry, the tested form may be a part): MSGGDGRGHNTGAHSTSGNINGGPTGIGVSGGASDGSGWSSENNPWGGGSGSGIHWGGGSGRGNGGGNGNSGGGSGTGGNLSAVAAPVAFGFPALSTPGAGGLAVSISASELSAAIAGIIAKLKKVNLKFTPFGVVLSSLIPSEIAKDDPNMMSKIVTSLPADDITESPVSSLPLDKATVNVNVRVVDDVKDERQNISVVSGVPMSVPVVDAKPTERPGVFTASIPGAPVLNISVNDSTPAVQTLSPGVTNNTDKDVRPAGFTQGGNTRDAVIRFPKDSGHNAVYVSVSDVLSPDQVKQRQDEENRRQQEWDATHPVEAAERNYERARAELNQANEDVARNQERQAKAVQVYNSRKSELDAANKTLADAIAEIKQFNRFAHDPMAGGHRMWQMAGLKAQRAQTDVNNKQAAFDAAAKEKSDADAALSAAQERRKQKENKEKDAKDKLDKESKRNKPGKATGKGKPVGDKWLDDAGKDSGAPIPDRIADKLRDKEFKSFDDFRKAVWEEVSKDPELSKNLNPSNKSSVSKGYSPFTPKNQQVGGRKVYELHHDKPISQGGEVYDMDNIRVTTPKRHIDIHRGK

In the case of `C[C@H](NC(=O)CNC(=O)[C@@H](NC(=O)[C@H](CC(N)=O)NC(=O)[C@H](Cc1c[nH]cn1)NC(=O)CNC(=O)[C@H](CCCNC(=N)N)NC(=O)CNC(=O)[C@H](CC(=O)O)NC(=O)CNC(=O)CNC(=O)[C@@H](N)CO)[C@@H](C)O)C(=O)N[C@@H](Cc1c[nH]cn1)C(=O)N[C@@H](CO)C(=O)N[C@H](C(=O)N[C@@H](CO)C(=O)NCC(N)=O)[C@@H](C)O` [OBS1_2–18] (H-SGGDGRGHNTGAHSTSG-NH2), the k1 in data set [1] (peptide from the periplasmic side, ± s.d.) is 9.6 ± 0.60 10^6 M^–1 s^–1. For the same molecule, in data set [1] (setting [18]), the k2 is recorded as 6.1 ± 0.42 10^6 M^–1 s^–1, the k3 is given as 3.2 ± 0.25 10^6 M^–1 s^–1, the “k–1” value is given as 43 ± 1.5 s^–1 and the “k–2” value is 78 ± 3.9 s^–1. The “k–3” value in [1] (setting [18]) is 111 ± 6.6 s^–1.

For the molecule `CC[C@H](C)[C@H](NC(C)=O)C(=O)N[C@@H](Cc1c[nH]cn1)C(=O)N[C@@H](Cc1c[nH]c2ccccc12)C(=O)NCC(=O)NCC(=O)NCC(=O)N[C@@H](CO)C(=O)NCC(=O)N[C@@H](CCCNC(=N)N)C(=O)NCC(N)=O` [OBS2_54–63] (Ac-IHWGGGSGRG-NH2), in data set [1] (OBS2 peptide, PLB recording), the “higher affinity from the periplasmic side than from the extracellular side” value is recorded as 200 times and the “slower dissociation when added to the periplasmic side than to the extracellular side” value is listed as 4 orders of magnitude. The k1 in [1] (peptide from the extracellular side, ± s.d.) is given as 4.0 ± 0.60 10^6 M^–1 s^–1. Moreover, the k3 in data set [1] (peptide from the extracellular side, fewer events (<100), error relatively large) is 0.97 ± 0.50 ^b 10^6 M^–1 s^–1. Besides, in data set [1] (setting [19]), the k2 is 2.2 ± 0.64 10^6 M^–1 s^–1, the “k–1” value is on record as 1.3 ± 0.10 × 10^4 s^–1, the “k–2” value is given as 2.5 ± 0.34 × 10^4 s^–1 and the “k–3” value is given as 3.2 ± 0.47 × 10^4 s^–1.

The molecule ColE9_2–83-ENLYFQ [IUTD] had a solubility in [2] of at most 5 µM. In addition, the “k12′ (rebinding)” value in data set [3] is recorded as “≈ 10^3 s^–1”. In addition, in data set [3] (SD), the “Association with a first subunit: k01” value was 6.3 ± 1.9 104 M-1s-1 and 10 ± 4.1 104 M-1s-1; the “Initial binding of the OBS1 sequence to a second subunit: k12” value was 58 ± 13 s⁻¹ and 38 ± 17 s⁻¹; the “Rebinding of the OBS1 sequence to a second subunit: k12’” value was 2200 ± 270 s⁻¹ and 1400 ± 340 s⁻¹; the “Unbinding of the OBS1 sequence from the second subunit: k21” value was 2.6 ± 1.1 s⁻¹ and 3.4 ± 0.7 s⁻¹. Further, in data set [3] (pH 6.4), the “k01, association with the first OmpF subunit” value was “≈ 10^4 M^–1 s^–1”; the “k12, initial binding of OBS1 to the second OmpF subunit” value is “≈ 10 ^2 s^–1”; the “occlusion of OmpF subunits after addition to the extracellular side (in words)” value was “sequential occlusion of two OmpF subunits”.

For “Colicin E9 OBS1 2-18 (from UniProt P09883)”, the Kd in [4] was 1.8 µM.

On to “Colicin E9 OBS2 54-63 (from UniProt P09883)”, for which, in data set [4], the Kd is 24 µM.

In [5], “IUTD-fusion (ColE9_(1–83)-TEV-E9 DNase·Im9His6) (from UniProt P09883 1-83; P13479 1-86) (complex)” showed a k01 (association with the first subunit, at 0 mV) of 9800 M⁻¹ s⁻¹ and an other of 181 s⁻¹. Moreover, in data set [6], the k21' (unbinding of OBS1 from the second subunit, at 0 mV) worked out at 3.9 s⁻¹ and the other is 5300 s⁻¹. In [7], this molecule yielded an effective molarity (EM) of 0.9 mM and a koff (failed attempts at threading during the latency) of 300 s⁻¹.

Take OmpF porin (outer membrane protein F): in data set [8], the “k1 (association rate constant)” value is 9.80 ± 0.31 μM^–1 s^–1 and the “k–1 (dissociation rate constant)” value is 3.22 ± 0.03 s^–1.

As for Ac-IHWGGGSGRG-NH2 [OBS2_(54-63) peptide (acetyl-OBS2_(54-63)-CONH2)], the figures for the Kd in data set [9] and in [10] were 60 µM and 11000 µM, respectively.

SGGDGRGHNTGAHSTSG-NH2: in data set [11], the Kd was 5400 µM.

B1: untagged IUTD (ColE9_(2-83)-ENLYFQ) (domain or fragment)
chain: SGGDGRGHNTGAHSTSGNINGGPTGIGVSGGASDGSGWSSENNPWGGGSGSGIHWGGGSGRGNGGGNGNSGGGSGTGGNLSAENLYFQ
Take B1: in [12], the binding result is “binds”.

B2: free IUTD (ColE9_(2–83)-ENLYFQ) (domain or fragment)
chain: SGGDGRGHNTGAHSTSGNINGGPTGIGVSGGASDGSGWSSENNPWGGGSGSGIHWGGGSGRGNGGGNGNSGGGSGTGGNLSAENLYFQ
As for B2, the binding result in data set [13] is reported as “binds”.

As to SGGDGRGHNTGAHSTSGSSGGSSGGSSGGC([HPDP-Biotin]) (also: bound to monovalent streptavidin) [OBS1–mSA (OBS1_(2-18)-Linker-Cys-HPDP-Biotin bound to monovalent streptavidin)], in data set [14], the koff is around 600 s⁻¹ and the kon is around 5e+06 M⁻¹ s⁻¹.

For the molecule H-SGGDGRGHNTGAHSTSG-NH2, the Kd is 5000 µM in data set [15] and 13 µM in data set [16].

As to C([HPDP-Biotin])GGSSGGSSGGSSIHWGGGSGRG (also: bound to monovalent streptavidin) [mSA–OBS2 (Biotin-HPDP-Cys-Linker-OBS2_(54-63) bound to monovalent streptavidin)], the binding result in [14] is reported as “binds”.

On to SGGDGRGHNTGAHSTSGNINGGPTG-NH2 (peptide, UniProt P09883 2-26, looked up) [OBS1_(2-26) peptide (NH2-OBS1_(2-26)-CONH2)], for which the binding result in data set [17] is “binds”.

The values are drawn from PMC7366379 (Journal of the American Chemical Society, 2020).
